Reference: patent publication US20140303251A1, “Methods Of Treating Acute Kidney Injury With Retinoic Acid” (Beth Israel Deaconess Medical Center, Inc., priority 2011, published 2014)

Key:
[1] = test system: primary cultures of renal proximal tubule epithelial cells (RPTECs); assay: in vitro IRI model: primary RPTEC cultures, mineral oil overlay induced hypoxia followed by reperfusion, qPCR; assay type: cell-based, mice; conditions: for CCL20 induction: Nur77 knockout RPTECs; for Nur77 levels (induction after ischemia-reperfusion): RPTECs, hypoxia by mineral oil overlay then reperfusion; for Nur77 levels (induction after ischemia-reperfusion) / Induction of Nr4a family members (Nor-1, Nurr1): vs vehicle; for Induction of Nr4a family members (Nor-1, Nurr1): both wild type and Nur77 knockout RPTEC cultures
Description: (§1) Kidney tissues were snap frozen and stored at −80 deg C. until processing. The tissues were homogenized and total RNA was prepared using RNeasy kit (Qiagen). DNA contamination was eliminated by DNase digestion. The reverse transcribed cDNA was subjected to qPCR using a Sybr green based detection system (SA Bioscience). Relative levels of mRNA was normalized to GAPDH levels and quantified based on 2e-deltaCT method.
Kidneys from 4-5 weeks old mice were harvested after perfusion with sterile PBS. Cortex was separated and minced into ˜1 mm3 pieces and digested using collagenase and soybean trypsin inhibitor for 30 min and 37 degC. The digested mix was spun down and filtered through 200 uM filter followed by a 70 uM filter. The tubules that are retained on the top of the 70 uM filter were collected and cultured in Renal life cell growth medium (Lifeline cell technology) on collagen coated plates. After 7 days of culturing, the cells were used for experiments. The purity of the culture was ascertained by staining for cytokeratin (Anti-cytokeratin antibody: Sigma). To induce ischemia reperfusion injury, confluent monolayer of RPTECs was overlayed with mineral oil for 1 h, followed by reperfusion with complete medium.
Retinoic acid can antagonize Nur77 function by inhibiting its transcriptional induction, DNA binding and nuclear export^17,18. RXRs heterodimerize with Nur77 in response to cell death stimuli, promoting nuclear export and causing Bcl-2 dependent cytochrome c release and apoptosis. Ligand bound RXR inhibits Nur77 function either by retaining it in the nucleus or by inhibiting its transcription by an AP-1 dependent mechanism^18. Since Nur77 deficient mice were protected from renal IRI, whether pharmacologic antagonism of Nur77 by retinoic acid could be used to protect kidneys from acute injury was assessed. To determine whether retinoids could regulate Nur77-dependent signaling in renal epithelia, primary cultures of renal proximal tubule epithelial cells (RPTECs) were generated from either wild type or Nur77 knockout mice. RPTECs were treated with either vehicle or 9-cis-retinoic acid, and subjected to mineral oil overlay induced hypoxia, followed by reperfusion.

renal IRI = assay: renal ischemia reperfusion injury (IRI) in mice, 9-cis retinoic acid given 4 h prior; assay type: in vivo; conditions: for BUN (serum blood urea nitrogen) / serum creatinine / tubular / renal injury score / apoptotic cells in kidney (TUNEL) / neutrophil infiltration in kidney / CXCL2 gene expression level in kidney: 10 mg/kg 4 h prior to IRI; for BUN (serum blood urea nitrogen) / serum creatinine: 24 h after IRI; for BUN (serum blood urea nitrogen) / serum creatinine / tubular / renal injury score / apoptotic cells in kidney (TUNEL) / neutrophil infiltration in kidney / CXCL2 gene expression level in kidney / Nor-1 and Nurr-1 levels in kidney / Nur77 gene expression level in kidney: vs vehicle; for BUN (serum blood urea nitrogen): P<0.0001; for serum creatinine: P<0.002; for apoptotic cells in kidney (TUNEL) / neutrophil infiltration in kidney: P<0.001; for CXCL2 gene expression level in kidney: P<0.02; for Nor-1 and Nurr-1 levels in kidney / Nur77 gene expression level in kidney: 10 mg/kg body weight 4 h prior to IRI, 24 hours after injury, qPCR; for localization pattern of Nur77: 24 h post IRI, immunochemistry
Description: Male mice of age 8-10 weeks were used in this study. Animals were anesthetized using xylazine and ketamine and kept on 37° C. warming pads. The kidneys were exposed by flank incision and both kidney pedicles were clamped for 45 minutes using non-traumatic microaneurysm clamps (Roboz, Rockville, Md.). Reperfusion was confirmed visually and the incision was sutured. Body temperature of the animals was maintained at 37° C. throughout the procedure.
9-cis retinoic acid in DMSO was administered to animals at a dose of 10 mg/kg body weight, 4 h prior to the IRI procedure. The final concentration of DMSO was 25% (v/v). Control animals received 25% (v/v) DMSO.
Kidneys from animals subjected to IRI were harvested. Transverse sections of the kidneys were either snap frozen in OCT or fixed in 10% formalin and processed for paraffin embedded sections. Renal morphology was assessed by PAS staining (Periodic acid-Schiff reagent). Neutrophil infiltration was assessed by staining formalin fixed paraffin embedded (FFPE) sections with anti-Ly6G (BD). Infiltrating neutrophils were counted in 3 independent HPFs (400×) per section per animal and represented as mean±SEM. Nur77 staining was carried out on FFPE sections after antigen retrievel using anti-mouse Nur77 antibody (Ebioscience). Endogenous mouse Ig was blocked using M.O.M kit from vector labs.
Kidney cell apoptosis was assessed by TUNEL staining using ApopTag® Peroxidase In Situ Apoptosis Detection Kit (Millipore). The apoptotic index was calculated as percentage of dead cells in 3 independent 400×HPF per section per animal by, counting both stained nuclei and total nuclei.
Serum plasma was collected 24 h after ischemia reperfusion and stored at −80 deg C. until further processing. Serum creatinine was quantified using QuantiChrom™ Creatinine Assay Kit (Bioassays systems). Serum blood urea nitrogen levels were measured using Infinity Urea liquid stable reagent (Thermo fisher).
as §1

[2] = Nur77+/+ (wild type) RPTECs, listed as 9-cis-RA

CC1=C(/C=C/C(C)=C\C=C\C(C)=C\C(=O)O)C(C)(C)CCC1 [9-cis-retinoic acid]
CCL20 levels ([1]; Nur77+/+ (wild type) RPTECs): very substantially reduced | Induction of CXCL2 ([1]; Nur77+/+ (wild type) RPTECs): significantly attenuated | CCL20 levels [1, 2]: reduced | Induction of CXCL2 [1, 2]: reduced | CCL20 induction [1]: no further effect | CCL20 induction ([1]; listed as 9-cis-RA): did not substantially reduce the expression level further | Induction of CXCL2 ([1]; RPTECs from Nur77 knockout kidneys): no further inhibitory effect | Induction of CXCL2 ([1]; RPTECs from Nur77 knockout kidneys, listed as 9-cis-RA): did not substantially reduce the expression level further | Nur77 levels (induction after ischemia-reperfusion) [1]: reduced by about half | Nur77 levels (induction after ischemia-reperfusion) ([1]; listed as 9-cis-RA): attenuated the induction | Induction of Nr4a family members (Nor-1, Nurr1) [1]: inhibited | Induction of Nr4a family members (Nor-1, Nurr1) ([1]; listed as 9-cis-RA): attenuated the induction | BUN (serum blood urea nitrogen) (renal IRI): reduced | BUN (serum blood urea nitrogen) (renal IRI; listed as 9-cis-RA): significantly lower | serum creatinine (renal IRI): reduced | serum creatinine (renal IRI; listed as 9-cis-RA): significantly lower | tubular / renal injury score (renal IRI): improved | apoptotic cells in kidney (TUNEL) (renal IRI): significantly less | neutrophil infiltration in kidney (renal IRI): much less | apoptotic cells in kidney (TUNEL) (renal IRI; listed as 9-cis-RA): fewer apoptotic cells | neutrophil infiltration in kidney (renal IRI; listed as 9-cis-RA): fewer | CXCL2 gene expression level in kidney (renal IRI): Reduced | CXCL2 gene expression level in kidney (renal IRI; listed as 9-cis-RA): greatly diminished | tubular / renal injury score (renal IRI; listed as 9-cis-RA): less injured | Nor-1 and Nurr-1 levels in kidney (renal IRI): dramatically lower induction | Nur77 gene expression level in kidney (renal IRI): dramatically lower induction | Nor-1 and Nurr-1 levels in kidney (renal IRI; listed as 9-cis-RA): reduced | Nur77 gene expression level in kidney (renal IRI; listed as 9-cis-RA): significantly diminished | localization pattern of Nur77 (renal IRI): cytoplasmic | localization pattern of Nur77 (renal IRI; listed as 9 cis-RA): unaltered | overall level of Nur77 protein expression in kidney (immunochemistry) (renal IRI; mice that received 9-cis-retinoic acid, after renal IRI): dramatically reduced | transcript level of HIF-1 alpha (renal IRI; treatment prior to the induction of IRI): unchanged
